Experimental data: patent US20250214978A1, “AT2R AGONIST” (WUHAN HUMANWELL INNOVATIVE DRUG RESEARCH AND DEVELOPMENT …, priority 2022, published 2025)
Read-outs that look alike come from different tables or passages of the source.

Assays:
Assay type in all cases: in vitro ADME
[1] = Free plasma protein binding (PPB) assay, equilibrium dialysis; conditions: dialysis 6 hours at 37° C.
Protocol: The dried dialysis membrane was soaked in ultrapure water for 1 hour, then soaked in 20% ethanol for 20 minutes, and then rinsed with ultrapure water for 2 to 3 times. Finally, the dried dialysis membrane was soaked in ultrapure water for 20 minutes for later use. The frozen plasma was thawed in a water bath at 37° C. for about 20 minutes. pH value of the plasma was measured after thawing was complete, and was adjusted to 7.4 with 1% phosphoric acid solution or 0.1M sodium hydroxide solution. […] The pretreated dialysis membrane was assembled into the dialysis plate according to product instructions, and 100 μL of receiving solution (100 mM phosphate buffer solution plus 0.002% Tween 80) was added to one side of the permeable membrane in each dialysis well. 20 μL of each of the final solution of the test compound and the final solution of the control compound were taken in a 96-well sample plate, two duplicate samples were made, and T0 sample was obtained, which was stored in a −20° C. refrigerator. Another 100 μL of each of the above-mentioned final solutions were taken to the other side of the membrane in the dialysis device, two duplicate samples were made, and incubated at 37° C. with constant shaking for 6 hours. After 6 hours of incubation, 20 μL of each of the dialyzed receiving solution and the administered plasma were taken, two duplicate samples were made, and sample A and sample B were obtained. Corresponding blank plasma or receiving solution of corresponding volume were added to sample B and sample A, respectively, allowing the volume ratio of plasma to buffer in each sample well to be 1:1. 300 μL of sample-containing internal standard acetonitrile solution was added to all the sample wells. The mixture was mixed well, and centrifuged at 5,500×g for 10 minutes. 150 μL of corresponding ultrapure water was added to the corresponding sample wells of the 96-well sample plate. 150 μL of the supernatant was taken into the sample wells, and mixed well. Then, LC/MS/MS analysis was performed. The calculation formula of fu is: […]
where: CR: peak area ratio measured in the receiving chamber well CD: peak area ratio measured in the supply chamber well.

[2] = target: CYP2C8 (Homo sapiens (Human), UniProt P10632); assay: CYP inhibition assay in mixed human liver microsomes; conditions: mixed (pooled) human liver microsomes, read-out: Inhibition rate % CYP2C8
Protocol: The inhibitory effects of the compounds on seven enzymes, i.e., CYP1A2, CYP2C9, CYP2C19, CYP2D6, CYP3A4 (midazolam), CYP2B6, and CYP2C8, were evaluated at a concentration of 10 μM. Mixed human liver microsomes, which were previously stored in a −80° C. refrigerator before use, were taken out and thawed in a water bath at 37° C. before use, and placed on ice for further operation. 100 μL of microsome working solution was taken, and added with 2 μL of test product or positive inhibitor working solution. 2 μL of solvent was added to the solvent control. The mixture was pre-incubated in a water bath at 37° C. for 10 minutes. After preincubation, 98 μL of NADPH regeneration solution was added to all samples to initiate the reaction. Then, the samples were put back into the water bath and incubated for a period of time. The reaction was quenched with 200 μL of stop solution. The plate was centrifuged at 3,220 g for 10 minutes, 100 μL of supernatant was transferred, and 100 μL of water was added and mixed well to the assay plate for LC/MS/MS analysis.

[3] = test system: Caco-2 cells; assay: Bidirectional permeability study in CACO-2 cells; conditions: Caco-2 monolayer, 2.00 μM, 2 hours, pH 7.40
Protocol: Caco-2 cells were inoculated onto polyethylene membrane (PET) in 96-well inserted plates at a rate of 1×10^5 cells/cm^2, and the medium was changed every 4 to 5 days until day 21 to 28, to form a fused cell monolayer. The transport buffer in the assay was HBSS and 10.0 mM HEPES, with a pH of 7.40±0.05. The test compounds were subjected to a bidirectional test at 2.00 μM in the presence and absence of GF120918 (10.0 μM). Digoxin was subjected to a bidirectional test at 10.0 μM in the presence and absence of GF120918 (10.0 μM), while Nadolol and Metoprolol were subjected to a test from direction A to direction B at 2.00 μM in the absence of GF120918 (10.0 μM). The above tests were performed in duplicate. The final concentration of DMSO was adjusted to be lower than 1%. The plate was incubated in a CO2 incubator at 37° C.±1° C. for 2 hours, and 5% CO2 was added under saturated humidity without shaking. All the samples, after being mixed with acetonitrile containing internal standard, were centrifuged at 3,200 g for 10 minutes. […] The concentrations of the test compounds and control compounds in the starting solution, the donor solution, and the acceptor solution were quantified by LC-MS/MS based on a peak area ratio of the analyte to the internal standard.
After the transport assay, the integrity of the Caco-2 cell monolayer was determined using Lucifer Yellow Exclusion Assay.

[4] = Liver microsome stability assay; conditions: Rat liver microsomes; read-out: T1/2 (min) Rat
[5] = Liver microsome stability assay; conditions: dog; Canine liver microsomes; read-out: T1/2 (min) Canine
[6] = Liver microsome stability assay; conditions: Mouse liver microsomes; read-out: T1/2 (min) Mouse

Sequence of CYP2C8 (P10632 whole entry): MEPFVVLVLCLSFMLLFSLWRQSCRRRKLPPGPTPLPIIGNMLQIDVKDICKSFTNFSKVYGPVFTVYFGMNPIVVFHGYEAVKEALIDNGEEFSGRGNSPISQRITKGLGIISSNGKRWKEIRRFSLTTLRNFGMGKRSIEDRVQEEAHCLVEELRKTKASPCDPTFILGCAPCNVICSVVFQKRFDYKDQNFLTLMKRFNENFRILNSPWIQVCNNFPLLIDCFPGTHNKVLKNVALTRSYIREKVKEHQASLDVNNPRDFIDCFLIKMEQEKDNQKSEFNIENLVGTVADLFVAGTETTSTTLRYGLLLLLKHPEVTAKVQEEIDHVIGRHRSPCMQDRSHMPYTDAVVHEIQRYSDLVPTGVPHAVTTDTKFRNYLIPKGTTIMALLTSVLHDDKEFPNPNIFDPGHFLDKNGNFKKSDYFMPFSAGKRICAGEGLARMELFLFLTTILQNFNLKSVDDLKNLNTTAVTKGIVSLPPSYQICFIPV

`CCCCOC(=O)NS(=O)(=O)c1sc(CC(C)C)cc1-c1ccc(Cn2ccnc2)cc1` [Control Compound I, reference compound] gave a fraction unbound at 6 h, 1 μM ([1]; dog, pH 7.4, Canine plasma, read-out: fu % Canine) of 0.0023, a fraction unbound at 6 h, 1 μM ([1]; pH 7.4, Human plasma, read-out: fu % Human) of 0.0006 and a fraction unbound at 6 h, 1 μM ([1]; pH 7.4, Mouse plasma, read-out: fu % Mouse) of 0.0009. For the same compound, the fraction unbound at 6 h, 1 μM ([1]; pH 7.4, Rat plasma, read-out: fu % Rat) was 0.0005, the inhibition at 10 µM [2] was 97.5% and the “Papp mean value (10^−6 cm/s) A to B” value [3] was 0.381 10^−6 cm/s. For the same compound, the half-life at 1 μM [4] was 22.6 min, the half-life at 1 μM [5] was 224 min and the half-life at 1 μM [6] was 49.1 min.
